ChEMBL document CHEMBL5104234, “Targeted protein degradation using the lysosomal pathway” (RSC Med Chem, 2022)

Columns and labels:
[1] = Cytoprotective activity against Down syndrome patient-derived human Detroit 532 cells assessed as increase in mitochondrial membrane potential at 10 uM incubated for 3 days by JC-1 staining based fluorescence microscopy; type: functional; conditions: time 3 day
Mus musculus = assay: Antidiabetic activity in high fat diet-induced obese db/db mouse assessed as reduction in total lipid concentration at 30 mg/kg,ip administered for 2 weeks; type: functional; parameters: scale not given: the % may be the effect or the level left
[2] = Drug uptake in human HepG2 cells with ASGPR overexpression assessed as fold increase in intracellular uptake; type: ADME, cell-based

| fold change (FC) [2] | SMILES | Activity (Mus musculus) [%] | also measured |
| --- | --- | --- | --- |
| – | CC(=O)N[C@@H](CSc1nc2c(=O)[nH]c(N)nc2n1Cc1ccc(F)cc1)C(=O)NCCCOCCOCCOCCCCC(=O)C(=O)c1c(-c2ccccc2)[nH]c2ccccc12 | – | Activity [1]: 50% |
| – | O=c1cc(-c2ccccc2)c2c(OCCCCCCCCCCOc3ccc4ccccc4c3/N=N/c3ccc(/N=N/c4ccccc4)cc3)cc(O)cc2o1 | 62 | – |
| 2 | N[C@@H](COC1O[C@H](CCP(=O)(O)O)[C@@H](O)[C@H](O)[C@@H]1O)C(=O)O (stereo not given in full) | – | – |
| 16 | CC(=O)N[C@@H]1[C@@H](O)[C@@H](O)[C@@H](CO)O[C@@H]1O | – | – |
| – | O=C1C(=Cc2cc(Br)c(O)c(Br)c2)c2cc(I)ccc2N1CCCCCCCCCCCOc1ccc2ccccc2c1/N=N/c1ccc(/N=N/c2ccccc2)cc1 | 62 | – |
